# According to PMC10991509, “A phase I study of ATR inhibitor gartisertib (M4344) as a single agent and in combination with carboplatin in patients with advanced solid tumours” (British Journal of Cancer, 2024):
# Experiments:
# [1] = tested on: patients with advanced solid tumours; experiment: Phase I safety and tolerability (TEAEs, DLTs, MTD/RP2D); format: in vivo
# Text: This phase I, multicenter, multicohort, open-label, first-in-human study (NCT02278250) assessed the safety, tolerability, pharmacokinetics (PK) and antitumour activity of orally administered gartisertib alone or in combination with intravenous carboplatin in patients with advanced solid tumours for whom no standard therapy was available.
# The primary objectives of cohorts A and A2 were to evaluate safety and tolerability and determine the maximum tolerated dose (MTD) and/or recommended phase II dose (RP2D) of escalating doses of gartisertib monotherapy. In cohort B1, the primary objective was to determine the safety and tolerability as well as the MTD and/or RP2D of escalating doses of gartisertib in combination with carboplatin. The primary endpoints for these three study cohorts were safety parameters (AEs, clinical laboratory values, vital signs, and electrocardiogram [ECG] assessment) as well as the MTD and/or RP2D. The Supplementary Materials provide further details regarding the safety analysis, including determination of MTD, as well as the definitions of dose-limiting toxicities (DLTs; Supplementary Table S1). Please note that in this study increased blood bilirubin was defined as a laboratory finding whereas hyperbilirubinemia was a clinical diagnosis based on clinical symptoms.
# Gartisertib safety was determined via reporting, recording, and analysis of Baseline Medical Conditions, AEs, physical examination data including vital signs, electrocardiograms and laboratory tests. Medical history and physical examination data were collected during the study. Any potential AE was reported and comprehensively evaluated throughout the study. AE severity was assessed according to the National Cancer Institute – Common Terminology Criteria for Adverse Events (NCI–CTCAE) version 4.0 (cohorts A and B1) or 5.0 (cohorts A2 and C). Any clinical AE with a grade of 4 or 5 was considered to be a serious AE (SAE). A laboratory AE of grade 4 was considered serious if it met certain SAE criteria. […] Important medical events that may not result in death, be life-threatening, or require hospitalization were considered to be SAEs when, based upon appropriate medical judgment, they may jeopardize the patient or may require medical or surgical intervention to prevent one of the outcomes listed above.
# Patients were monitored throughout treatment cycles for DLTs. DLTs were defined using the NCI CTCAE (cohorts A and B1: version 4.0; cohort A2: version 5.0) and were defined as being related or possibly related to treatment.
# Cohorts A, A2, and B1: With respect to determination of the MTD, the next dose level to be investigated was decided at a Dose Escalation Meeting and was based on the available safety data from the previous cohort. The MTD of gartisertib was primarily determined by DLTs that occurred up to and including the end of the DLT period. Please see Table S1 for definitions of DLTs. In cohorts A and B1, the gartisertib MTD was determined according to the NCI-CTCAE version 4.0 and in cohorts A2 and […], the gartisertib MTD was defined according to the NCI-CTCAE version 5.0. If ≥2 out of up to six participants at the same dose level have a DLT, the gartisertib MTD was determined as the dose level below or at an intermediate dose level. The exact dose was determined following a discussion regarding all the relevant toxicity, including DLTs that occur in prior cohorts beyond the end of the DLT period. An RP2D was determined for each applicable cohort of the study; however, it may not be higher than the MTD.
# ɣ-H2AX = ɣ-H2AX in ex vivo-stimulated CD45+ lymphocytes; parameters: species or system human; conditions: 350 mg QD, n = 3, highest tested dose; 3 h post first dose
# Text: Exploratory objectives were to assess ATR inhibition and DNA damage by measuring phosphorylation of the Ser-139 residue of the histone variant H2AX (ɣ-H2AX) post-treatment in peripheral blood mononuclear cells (cohorts A2 and C), describe the mutational landscape and its relationship to BOR in patients with selected biomarkers (cohort C) and to determine changes in allele frequencies in mutations of interest and their association with clinical benefit (molecular response; cohorts A2 and C). Further details on the definitions of LOF mutations and methods of biomarker collection are described in the Supplementary Materials.
# To determine H2AX phosphorylation (ɣ-H2AX) in lymphocytes, 100 µL of whole blood was stimulated with 62 µM 4NQO (4-nitroquinoline N-oxide, Sigma, UK) for 1 hour at 37°C. In parallel, 100 µL of whole blood was incubated with 10% DMSO (dimethyl sulfoxide, Sigma, UK) as an unstimulated control sample. The samples were subsequently treated (for 10 minutes at 37°C) with BD Lyse & Fix Solution (Becton Dickinson, USA) and the whole blood cells were permeabilized with ice-cold methanol (90% final concentration) for 30 minutes on ice. […] Cells were then analyzed using a FacsCanto II (Becton Dickinson, USA) collecting 10,000 events. […]
smiles,measurement,setting,value
"Nc1nn2cc(F)cnc2c1C(=O)Nc1cncc(F)c1N1CCC(C(=O)N2CCN(C3COC3)CC2)CC1 [gartisertib, Gartisertib]","TEAE Constipation, Grade 3/4","[1]; human, in vivo",0 (0.0) n (%)
same,"TEAE Decreased appetite, Grade 3/4","[1]; human, in vivo",0 (0.0) n (%)
same,"TEAE Diarrhoea, Grade 3/4","[1]; human, in vivo",0 (0.0) n (%)
same,"TEAE Disease progression, Grade 3/4","[1]; human, in vivo",0 (0.0) n (%)
same,"TEAE Disease progression, any grade","[1]; human, in vivo",0 (0.0) n (%)
same,"TEAE Dyspnoea, Grade 3/4","[1]; human, in vivo",0 (0.0) n (%)
same,"TEAE Headache, Grade 3/4","[1]; human, in vivo",0 (0.0) n (%)
same,"TEAE Hypokalaemia, Grade 3/4","[1]; human, in vivo",0 (0.0) n (%)
same,"TEAE Hypokalaemia, any grade","[1]; human, in vivo",0 (0.0) n (%)
same,"TEAE Hypomagnesaemia, Grade 3/4","[1]; human, in vivo",0 (0.0) n (%)
same,"TEAE Hypomagnesaemia, any grade","[1]; human, in vivo",0 (0.0) n (%)
same,"TEAE Jaundice, Grade 3/4","[1]; human, in vivo",0 (0.0) n (%)
same,"TEAE Jaundice, any grade","[1]; human, in vivo",0 (0.0) n (%)
same,"TEAE Neutropenia, Grade 3/4","[1]; human, in vivo",0 (0.0) n (%)
same,"TEAE Peripheral oedema, Grade 3/4","[1]; human, in vivo",0 (0.0) n (%)
same,"TEAE Peripheral oedema, any grade","[1]; human, in vivo",0 (0.0) n (%)
same,"TEAE Thrombocytopenia, Grade 3/4","[1]; human, in vivo",0 (0.0) n (%)
same,"TEAE Thrombocytopenia, any grade","[1]; human, in vivo",0 (0.0) n (%)
same,TEAE anaemia,"[1]; human, in vivo",61.5%
same,TEAE fatigue,"[1]; human, in vivo",47.6%
same,TEAE increased blood bilirubin,"[1]; human, in vivo",61.5%
same,TEAE nausea,"[1]; human, in vivo",66.7%
same,abdominal pain leading to gartisertib discontinuation,"[1]; human, in vivo",7.7%
same,hepatic failure leading to gartisertib discontinuation,"[1]; human, in vivo",7.7%
same,increased ALT leading to gartisertib discontinuation,"[1]; human, in vivo",7.7%
same,increased blood bilirubin leading to gartisertib discontinuation,"[1]; human, in vivo",11.9%
same,nausea leading to gartisertib discontinuation,"[1]; human, in vivo",7.1%
same,patients experiencing a gartisertib-related TEAE,"[1]; human, in vivo",≥ 92.3%
same,patients who experienced at least one serious TEAE,"[1]; human, in vivo",≥ 50%
same,patients with grade 3 or 4 changes in laboratory parameters,"[1]; human, in vivo",≤ 20%
same,recommended phase II dose (RP2D),"[1]; human, in vivo",250 mg QD
same,serious TEAE related to gartisertib,"[1]; human, in vivo",19.0-37.5%
same,DLTs at QD doses subsequently investigated,[1]; in vivo,no additional DLTs observed
same,changes in ECG parameters,[1]; in vivo,no clinically relevant changes
same,changes in vital signs,[1]; in vivo,no clinically relevant changes
same,gartisertib dose reduction due to a treatment-related TEAE,[1]; in vivo,eight
same,patients with ≥1 DLT,[1]; in vivo,five
same,tolerability of gartisertib 1200 mg twice weekly,[1]; in vivo,not tolerated
same,deaths considered related to gartisertib or carboplatin,[1]; six deaths reported across all cohorts,none
same,target inhibition of ɣ-H2AX,ɣ-H2AX,Complete target inhibition
